Target: T1, Kv7.2/7.3 channels (Homo sapiens, UniProt O43525+O43526)
T1 construct: The entire construct for Kv7.2 and Kv7.3 was subcloned into the pIRESneo3 and pIREShygro3 expression vectors; expressed in transfected cells
Test: Kv7.2/3 channel opening activity, IonWorks planar patch-clamp of K-current at 0 mV
Type: cell-based
Settings: CHO-K1 cells expressing human Kv7.2/7.3; IonWorks Quattro, step from -80 mV to 0 mV, 7-point concentration curves
Excerpt: Biological Assay for Kv7.2/3 Channel Opening Activity
Human Kv7.2 and Kv7.3 clones were obtained from GeneDynamics (Eugene, Oreg.). Both human Kv7.2/pIRESneo3 and human Kv7.3/pIREShygro3 expression vectors were constructed using a combination of fragments amplified from a human hippocampus library (extending from a NheI site near the 5′ end through the stop codon) and synthetic oligonucleotides (extending from the start codon to the BamHI site). The entire construct for Kv7.2 and Kv7.3 was subcloned into the pIRESneo3 and pIREShygro3 expression vectors (Clonetech, Mountain View, Calif.), respectively, using NheI/BamHI sites introduced on either side of the start and stop codons. The construct was sequenced in its entirety to make sure that no mutations were introduced during the amplification and cloning process. Adapted from Wickendon, A D et al., Mol Pharmacol 58(3):591-600, 2000.
Chinese hamster ovary (CHO-K1) cells were transfected with human-Kv7.2 in a pIRESneo3 plasmid DNA vector (Clonetech, Mountain View, Calif.) and the h-Kv7.3 subunit in pIREShygro3 plasmid DNA vector using Lipofectamine-2000™ reagent (InVitrogen, San Diego, Calif.), according to the manufacturers instructions. Cells stably expressing the human Kv7.2 and Kv7.3 constructs were identified by their resistance to 400 ug/ml, geneticin (Gibco #10131-027) and 400 ug/ml, hygromycin-B (Invitrogen #10687-010). Clones were screened for functional expression using the whole-cell, voltage-clamp technique.
To determine if compounds can enhance voltage-dependent K-current in Kv7.2/7.3 channel containing CHO-K1 cells. Planar patch-clamp is used on IonWorks to functionally determine percent enhancement of Kv7.2/7.3-current at 0 mV (compared to retigabine) and potency (EC50) of compounds. Intrinsic activity and/or potency may be important in determining in vivo pharmacological efficacy of the compounds.
Serial dilutions were made in DMSO on an Apricot Personal Pipettor. Compounds were then diluted in external buffer on a 384 well assay plate (final DMSO concentration=0.3%).
Cells used in this assay were CHO-K1 expressing Kv7.2/7.3 channels. Cells were maintained in growth media containing: F-12 (Gibco #11765-054), 10% FBS (Invitrogen 16140-071), 1:100 Glutamax (Gibco #35050-061), 1:100 Penicillin/streptomycin (Gibco #15140-122), 400 ug/ml Geneticin (Gibco #10131-027), 400 ug/ml Hygromycin-B (Invitrogen #10687-010). Cells were grown in T-150 flasks to a confluence of approx. 80%. External recording buffer contained (in mM): NaCl (137), KCl (4), MgCl2 (1), CaCl2 (1.8), HEPES (10), and glucose (10), pH was adjusted to 7.3 with NaOH and osmolarity was adjusted to 300-305 mOsM with sucrose, if necessary. Internal buffer contained (in mM): Kgluconate (120), KCl (20), NaCl (5), MgCl2 (1), CaCl2 (2), HEPES (10), KF (2), and Na2ATP (2). Na2ATP was added to internal buffer right before use and pH was adjusted to 7.2 with KOH. Osmolarity of internal buffer was adjusted to 290-295 mOsM.
Cells were washed 1× with Ca/Mg free PBS and then removed from the plates with a 50:50 mixture of versene (Gibco 15040): 0.25% trypsin-EDTA (Gibco 25200) (4 min), triturated, centrifuged at ˜1000 rpm for 5 min, and resuspended at ˜2.5 million cells/ml in external buffer for recording on IonWorks. Potassium current measurements were made using an IonWorks Quattro instrument (MDS Corp.) using PatchPlate PPC substrates with 64 apertures per well. IonWorks calculated leak current was digitally subtracted from the total current acquired. Potassium current was elicited by stepping from −80 mV to 0 mV (2 sec) was measured in the absence and presence of increasing concentrations (½ log) of unknown compound (7-point concentration curves). Retigabine was run as a positive control and comparator on each PatchPlate PPC. Maximum increase in K current was determined by subtracting the current elicited in external buffer alone wells from the current elicited in wells with compound treatment (both at 0 mV). […]

SMILES	EC50 [µM]
CC[C@@H](C)Nc1nc2c(C)cccn2c(=O)c1NC(=O)CC(C)(C)C [Example 1, N-{2-[(2R)-Butan-2-ylamino]-9-methyl-4-oxo-4H-pyrido[1,2-a]pyrimidin-3-yl}-3,3-dimethylbutanamide]	0.168
Cc1cccn2c(=O)c(NC(=O)CC(C)(C)C)c(NC(C)C)nc12 [Example 3, 3,3-Dimethyl-N-[9-methyl-4-oxo-2-(propan-2-ylamino)-4H-pyrido[1,2-a]pyrimidin-3-yl]butanamide]	0.45
CC(C)(C)CC(=O)Nc1c(C2CC2)nc2c(C(F)(F)F)cccn2c1=O [Example 4, N-[2-Cyclopropyl-4-oxo-9-(trifluoromethyl)-4H-pyrido[1,2-a]pyrimidin-3-yl]-3,3-dimethylbutanamide]	0.137
CC(C)(C)CC(=O)Nc1c(NC2CCC2)nc2c(C(F)(F)F)cccn2c1=O [Example 6, N-[2-(Cyclobutylamino)-4-oxo-9-(trifluoromethyl)-4H-pyrido[1,2-a]pyrimidin-3-yl]-3,3-dimethylbutanamide]	0.0915
CC(C)Nc1nc2c(C(F)(F)F)cccn2c(=O)c1NC(=O)CC(C)(C)C [Example 7, 3,3-Dimethyl-N-[4-oxo-2-(propan-2-ylamino)-9-(trifluoromethyl)-4H-pyrido[1,2-a]pyrimidin-3-yl]butanamide]	0.119
CC(C)Nc1nc2c(OC(C)(F)F)cccn2c(=O)c1NC(=O)CC(C)(C)C [Example 9, N-[9-(1,1-Difluoroethoxy)-4-oxo-2-(propan-2-ylamino)-4H-pyrido[1,2-a]pyrimidin-3-yl]-3,3-dimethylbutanamide]	0.369
CC(C)(C)CC(=O)Nc1c(C2CC2)nc2c(OC(C)(F)F)cccn2c1=O [Example 10, N-[2-Cyclopropyl-9-(1,1-difluoroethoxy)-4-oxo-4H-pyrido[1,2-a]pyrimidin-3-yl]-3,3-dimethylbutanamide]	0.306

Other lines, results leading:

EC50 [µM]	SMILES
0.227	Cc1cccn2c(=O)c(NC(=O)CC(C)(C)C)c(NC(C)C3CC3)nc12 (single isomer, unassigned) [Example 2a, N-{2-[(1-Cyclopropylethyl)amino]-9-methyl-4-oxo-4H-pyrido[1,2-a]pyrimidin-3-yl}-3,3-dimethylbutanamide, (+)-enantiomer]
0.128	Cc1cccn2c(=O)c(NC(=O)CC(C)(C)C)c(NC(C)C3CC3)nc12 (single isomer, unassigned) [Example 2b, N-{2-[(1-Cyclopropylethyl)amino]-9-methyl-4-oxo-4H-pyrido[1,2-a]pyrimidin-3-yl}-3,3-dimethylbutanamide, (−)-enantiomer]
1.24	CC(C)(C)CC(=O)Nc1c(C2CC2)nc2n(c1=O)CCCC2C(F)(F)F (single isomer, unassigned) [Example 5a, N-[2-Cyclopropyl-4-oxo-9-(trifluoromethyl)-6,7,8,9-tetrahydro-4H-pyrido[1,2-a]pyrimidin-3-yl]-3,3-dimethylbutanamide, (−)-enantiomer]
0.298	CC(C)(C)CC(=O)Nc1c(C2CC2)nc2n(c1=O)CCCC2C(F)(F)F (single isomer, unassigned) [Example 5b, N-[2-Cyclopropyl-4-oxo-9-(trifluoromethyl)-6,7,8,9-tetrahydro-4H-pyrido[1,2-a]pyrimidin-3-yl]-3,3-dimethylbutanamide, (+)-enantiomer]
0.382	CC(C)Nc1nc2n(c(=O)c1NC(=O)CC(C)(C)C)CCCC2C(F)(F)F (single isomer, unassigned) [Example 8a, 3,3-Dimethyl-N-[4-oxo-2-(propan-2-ylamino)-9-(trifluoromethyl)-6,7,8,9-tetrahydro-4H-pyrido[1,2-a]pyrimidin-3-yl]butanamide, (−) enantiomer]
0.412	CC(C)Nc1nc2n(c(=O)c1NC(=O)CC(C)(C)C)CCCC2C(F)(F)F (single isomer, unassigned) [Example 8b, 3,3-Dimethyl-N-[4-oxo-2-(propan-2-ylamino)-9-(trifluoromethyl)-6,7,8,9-tetrahydro-4H-pyrido[1,2-a]pyrimidin-3-yl]butanamide, (+) enantiomer]
0.307	CC[C@@H](C)Nc1nc2n(c(=O)c1NC(=O)CC(C)(C)C)CCCC2C (single isomer, unassigned; diastereomer 1) [Example 11a]
0.942	CC[C@@H](C)Nc1nc2n(c(=O)c1NC(=O)CC(C)(C)C)CCCC2C (single isomer, unassigned; diastereomer 2) [Example 11b]

Source: patent publication US20130184294A1, “Pyrimidones for Treatment of Potassium Channel Related Diseases” (Pfizer Inc., priority 2010, published 2013)
